Source: patent US8580918B2, “Peptidic GLP-2 agonists” (Ferring B.V., priority 2009, dated 2013)
Where a SMILES comes first, the peptide text is derived from it. Where no end group is shown, it is not given here. [ ]: non-standard residue; d: D form. The star is where a group is joined. X1 = NC(=O)CCOCCOCCOCCOCCOCCOCCNC(=O)COCC(=O)NCCCOCCOCCOCCCN*; dPhe(3-Cl) = N[C@H](Cc1cccc(Cl)c1)C(=O)O; X2 = NC(=O)COCC(=O)NCCCOCCOCCOCCCN*; d2Thi = N[C@H](Cc1cccs1)C(=O)O; Nle = CCCC[C@H](N)C(=O)O

Experiment: Pharmacokinetics in rats after intravenous bolus injection (systemic clearance)
Format: in vivo
Settings: rat, in vivo, adult male Sprague-Dawley rats, i.v. bolus, dose 0.20 mg FB/kg, read-out: CL (ml/kg/min) Average
Summary of the method: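 Adult male Sprague-Dawley rats (3-4, doubly cannulated) given IV jugular bolus at 0.1-1.0 mg/kg; serial carotid blood to K2EDTA plasma, LC/MS/MS quantitation. CL = dose/kg divided by AUC∞ (noncompartmental, trapezoid); mean ± SD.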

Row | clearance | Compound
1 | 2.8 mL/kg/min | HGEGSFSSELSTILDALAARDFIAWLIATKITDKKKKKK-NH2 (C-terminus assumed) [ZP-1846, reference compound]

Same assay, conditions: rat, plasma, 0.2 mg FB/kg, adult male Sprague-Dawley rats, i.v. bolus, dose 0.20 mg FB/kg, read-out: CL (ml/kg/min) Average

Row | Compound | clearance
2 | CCCC[C@H](NC(=O)[C@H](CCC(=O)O)NC(=O)[C@H](CC(=O)O)NC(=O)[C@H](CO)NC(=O)[C@H](Cc1ccccc1)NC(=O)[C@H](CO)NC(=O)CNC(=O)[C@H](CC(=O)O)NC(=O)CNC(=O)[C@@H](N)Cc1c[nH]cn1)C(=O)N[C@H](Cc1ccccc1)C(=O)N[C@H](C(=O)N[C@H](C(=O)N[C@@H](CC(C)C)C(=O)N[C@@H](CC(=O)O)C(=O)N[C@@H](Cc1ccccc1)C(=O)N[C@@H](CC(C)C)C(=O)N[C@@H](C)C(=O)N[C@@H](C)C(=O)N[C@@H](CCCNC(=N)N)C(=O)N[C@@H](CC(=O)O)C(=O)N[C@@H](Cc1ccccc1)C(=O)N[C@H](C(=O)N[C@@H](CC(N)=O)C(=O)N[C@@H](Cc1c[nH]c2ccccc12)C(=O)N[C@@H](CC(C)C)C(=O)N[C@H](C(=O)N[C@@H](CCC(N)=O)C(=O)N[C@H](C(=O)N[C@@H](CCCCN)C(=O)N[C@H](C(=O)N[C@H](C(=O)N[C@@H](CC(=O)O)C(=O)NCCCOCCOCCOCCCNC(=O)COCC(N)=O)[C@@H](C)O)[C@@H](C)CC)[C@@H](C)O)[C@@H](C)CC)[C@@H](C)CC)[C@@H](C)CC)[C@@H](C)O [Compound 60, [Gly2,Nle10,D-Phe11,Phe16] hGLP-2(1-33)-NH—CH2—((CH2)2O)3—(CH2)3—NH—C(O)—CH2—O—CH2—C(O)—NH2] (H-HGDGSFSDE[Nle][dF]TILDFLAARDFINWLIQTKITD-X2) | 0.29 mL/kg/min
3 | CCCC[C@H](NC(=O)[C@H](CCC(=O)O)NC(=O)[C@H](CC(=O)O)NC(=O)[C@H](CO)NC(=O)[C@H](Cc1ccccc1)NC(=O)[C@H](CO)NC(=O)CNC(=O)[C@H](CC(=O)O)NC(=O)CNC(=O)[C@@H](N)Cc1c[nH]cn1)C(=O)N[C@H](Cc1ccccc1)C(=O)N[C@H](C(=O)N[C@H](C(=O)N[C@@H](CC(C)C)C(=O)N[C@@H](CC(=O)O)C(=O)N[C@@H](Cc1ccccc1)C(=O)N[C@@H](CC(C)C)C(=O)N[C@@H](C)C(=O)N[C@@H](C)C(=O)N[C@@H](CCCNC(=N)N)C(=O)N[C@@H](CC(=O)O)C(=O)N[C@@H](Cc1ccccc1)C(=O)N[C@H](C(=O)N[C@@H](CC(N)=O)C(=O)N[C@@H](Cc1c[nH]c2ccccc12)C(=O)N[C@@H](CC(C)C)C(=O)N[C@H](C(=O)N[C@@H](CCC(N)=O)C(=O)N[C@H](C(=O)N[C@@H](CCCCN)C(=O)N[C@H](C(=O)N[C@H](C(=O)N[C@@H](CC(=O)O)C(=O)NCCCOCCOCCOCCCNC(=O)COCC(=O)NCCOCCOCCOCCOCCOCCOCCC(N)=O)[C@@H](C)O)[C@@H](C)CC)[C@@H](C)O)[C@@H](C)CC)[C@@H](C)CC)[C@@H](C)CC)[C@@H](C)O [Compound 61, [Gly2,Nle10,D-Phe11,Phe16] hGLP-2(1-33)-NH—CH2—((CH2)2O)3—(CH2)3—NH—C(O)—CH2—O—CH2—C(O)—NH—((CH2)2O)6—(CH2)2—C(O)—NH2] (H-HGDGSFSDE[Nle][dF]TILDFLAARDFINWLIQTKITD-X1) | 0.16 mL/kg/min
4 | CCCC[C@H](NC(=O)[C@H](CCC(=O)O)NC(=O)[C@H](CC(=O)O)NC(=O)[C@H](CO)NC(=O)[C@H](Cc1ccccc1)NC(=O)[C@H](CO)NC(=O)CNC(=O)[C@H](CC(=O)O)NC(=O)CNC(=O)[C@@H](N)Cc1c[nH]cn1)C(=O)N[C@H](Cc1ccccc1)C(=O)N[C@H](C(=O)N[C@H](C(=O)N[C@@H](CC(C)C)C(=O)N[C@@H](CC(=O)O)C(=O)N[C@@H](Cc1ccccc1)C(=O)N[C@@H](CC(C)C)C(=O)N[C@@H](C)C(=O)N[C@@H](C)C(=O)N[C@@H](CCCNC(=N)N)C(=O)N[C@@H](CC(=O)O)C(=O)N[C@@H](Cc1ccccc1)C(=O)N[C@H](C(=O)N[C@@H](CC(N)=O)C(=O)N[C@@H](Cc1c[nH]c2ccccc12)C(=O)N[C@@H](CC(C)C)C(=O)N[C@H](C(=O)N[C@@H](CCC(N)=O)C(=O)N[C@H](C(=O)N[C@@H](CCCCN)C(=O)N[C@H](C(=O)N[C@H](C(=O)N[C@@H](CC(=O)O)C(N)=O)[C@@H](C)O)[C@@H](C)CC)[C@@H](C)O)[C@@H](C)CC)[C@@H](C)CC)[C@@H](C)CC)[C@@H](C)O [Compound 63, [Gly2,Nle10,D-Phe11,Phe16] hGLP-2(1-33)-NH2] (H-HGDGSFSDE[Nle][dF]TILDFLAARDFINWLIQTKITD-NH2) | 0.24 mL/kg/min
5 | CCCC[C@H](NC(=O)[C@H](CCC(=O)O)NC(=O)[C@H](CC(=O)O)NC(=O)[C@H](CO)NC(=O)[C@H](Cc1ccccc1)NC(=O)[C@H](CO)NC(=O)CNC(=O)[C@H](CC(=O)O)NC(=O)CNC(=O)[C@@H](N)Cc1c[nH]cn1)C(=O)N[C@H](Cc1ccccc1)C(=O)N[C@H](C(=O)N[C@H](C(=O)N[C@@H](CC(C)C)C(=O)N[C@@H](CC(=O)O)C(=O)N[C@@H](Cc1ccccc1)C(=O)N[C@@H](CC(C)C)C(=O)N[C@@H](C)C(=O)N[C@@H](C)C(=O)N[C@@H](CCCNC(=N)N)C(=O)N[C@@H](CC(=O)O)C(=O)N[C@@H](Cc1ccccc1)C(=O)N[C@H](C(=O)N[C@@H](CC(N)=O)C(=O)N[C@@H](Cc1c[nH]c2ccccc12)C(=O)N[C@@H](CC(C)C)C(=O)N[C@H](C(=O)N[C@@H](CCC(N)=O)C(=O)N[C@H](C(=O)N[C@@H](CCCCN)C(=O)N[C@H](C(=O)N[C@H](C(=O)N[C@@H](CC(=O)O)C(=O)O)[C@@H](C)O)[C@@H](C)CC)[C@@H](C)O)[C@@H](C)CC)[C@@H](C)CC)[C@@H](C)CC)[C@@H](C)O [Compound 64, [Gly2,Nle10,D-Phe11,Phe16] hGLP-2(1-33)-OH] (H-HGDGSFSDE[Nle][dF]TILDFLAARDFINWLIQTKITD-OH) | 0.15 mL/kg/min
6 | CCCC[C@H](NC(=O)[C@H](CCC(=O)O)NC(=O)[C@H](CC(=O)O)NC(=O)[C@H](CO)NC(=O)[C@H](Cc1ccccc1)NC(=O)[C@H](CO)NC(=O)CNC(=O)[C@H](CC(=O)O)NC(=O)CNC(=O)[C@@H](N)Cc1c[nH]cn1)C(=O)N[C@H](Cc1cccc(Cl)c1)C(=O)N[C@H](C(=O)N[C@H](C(=O)N[C@@H](CC(C)C)C(=O)N[C@@H](CC(=O)O)C(=O)N[C@@H](Cc1ccccc1)C(=O)N[C@@H](CC(C)C)C(=O)N[C@@H](C)C(=O)N[C@@H](C)C(=O)N[C@@H](CCCNC(=N)N)C(=O)N[C@@H](CC(=O)O)C(=O)N[C@@H](Cc1ccccc1)C(=O)N[C@H](C(=O)N[C@@H](CC(N)=O)C(=O)N[C@@H](Cc1c[nH]c2ccccc12)C(=O)N[C@@H](CC(C)C)C(=O)N[C@H](C(=O)N[C@@H](CCC(N)=O)C(=O)N[C@H](C(=O)N[C@@H](CCCCN)C(=O)N[C@H](C(=O)N[C@H](C(=O)N[C@@H](CC(=O)O)C(N)=O)[C@@H](C)O)[C@@H](C)CC)[C@@H](C)O)[C@@H](C)CC)[C@@H](C)CC)[C@@H](C)CC)[C@@H](C)O [Compound 66, [Gly2,Nle10,D-3-Cpa11,Phe16] hGLP-2(1-33)-NH2] (H-HGDGSFSDE[Nle][dPhe(3-Cl)]TILDFLAARDFINWLIQTKITD-NH2) | 0.12 mL/kg/min

Second part, the compound after the results:

Row | clearance | Compound
7 | 0.15 mL/kg/min | CCCC[C@H](NC(=O)[C@H](CCC(=O)O)NC(=O)[C@H](CC(=O)O)NC(=O)[C@H](CO)NC(=O)[C@H](Cc1ccccc1)NC(=O)[C@H](CO)NC(=O)CNC(=O)[C@H](CC(=O)O)NC(=O)CNC(=O)[C@@H](N)Cc1c[nH]cn1)C(=O)N[C@H](Cc1cccs1)C(=O)N[C@H](C(=O)N[C@H](C(=O)N[C@@H](CC(C)C)C(=O)N[C@@H](CC(=O)O)C(=O)N[C@@H](Cc1ccccc1)C(=O)N[C@@H](CC(C)C)C(=O)N[C@@H](C)C(=O)N[C@@H](C)C(=O)N[C@@H](CCCNC(=N)N)C(=O)N[C@@H](CC(=O)O)C(=O)N[C@@H](Cc1ccccc1)C(=O)N[C@H](C(=O)N[C@@H](CC(N)=O)C(=O)N[C@@H](Cc1c[nH]c2ccccc12)C(=O)N[C@@H](CC(C)C)C(=O)N[C@H](C(=O)N[C@@H](CCC(N)=O)C(=O)N[C@H](C(=O)N[C@@H](CCCCN)C(=O)N[C@H](C(=O)N[C@H](C(=O)N[C@@H](CC(=O)O)C(N)=O)[C@@H](C)O)[C@@H](C)CC)[C@@H](C)O)[C@@H](C)CC)[C@@H](C)CC)[C@@H](C)CC)[C@@H](C)O [Compound 68, [Gly2,Nle10,D-Thi11,Phe16] hGLP-2(1-33)-NH2] (H-HGDGSFSDE[Nle][d2Thi]TILDFLAARDFINWLIQTKITD-NH2)
8 | 9.9 mL/kg/min | CC[C@H](C)[C@H](NC(=O)[C@H](Cc1ccccc1)NC(=O)[C@H](CC(=O)O)NC(=O)[C@H](CCCNC(=N)N)NC(=O)[C@H](C)NC(=O)[C@H](C)NC(=O)[C@H](CC(C)C)NC(=O)[C@H](CC(N)=O)NC(=O)[C@H](CC(=O)O)NC(=O)[C@H](CC(C)C)NC(=O)[C@@H](NC(=O)[C@@H](NC(=O)[C@H](CC(N)=O)NC(=O)[C@H](CCSC)NC(=O)[C@H](CCC(=O)O)NC(=O)[C@H](CC(=O)O)NC(=O)[C@H](CO)NC(=O)[C@H](Cc1ccccc1)NC(=O)[C@H](CO)NC(=O)CNC(=O)[C@H](CC(=O)O)NC(=O)CNC(=O)[C@@H](N)Cc1c[nH]cn1)[C@@H](C)O)[C@@H](C)CC)C(=O)N[C@@H](CC(N)=O)C(=O)N[C@@H](Cc1c[nH]c2ccccc12)C(=O)N[C@@H](CC(C)C)C(=O)N[C@H](C(=O)N[C@@H](CCC(N)=O)C(=O)N[C@H](C(=O)N[C@@H](CCCCN)C(=O)N[C@H](C(=O)N[C@H](C(=O)N[C@@H](CC(=O)O)C(=O)O)[C@@H](C)O)[C@@H](C)CC)[C@@H](C)O)[C@@H](C)CC [teduglutide, [Gly2]hGLP 2, reference compound]
9 | 2.4 mL/kg/min | HGEGTFSSELATILDALAARDFIAWLIATKITDKKKKKK-NH2 [ZP-1848, reference compound]

Same assay, conditions: rat, plasma, adult male Sprague-Dawley rats, i.v. bolus, dose 1.0 mg FB/kg, read-out: CL (ml/kg/min) Average

Row | clearance | Compound
10 | 8 mL/kg/min | CC[C@H](C)[C@H](NC(=O)[C@H](Cc1ccccc1)NC(=O)[C@H](CC(=O)O)NC(=O)[C@H](CCCNC(=N)N)NC(=O)[C@H](C)NC(=O)[C@H](C)NC(=O)[C@H](CC(C)C)NC(=O)[C@H](CC(N)=O)NC(=O)[C@H](CC(=O)O)NC(=O)[C@H](CC(C)C)NC(=O)[C@@H](NC(=O)[C@@H](NC(=O)[C@H](CC(N)=O)NC(=O)[C@H](CCSC)NC(=O)[C@H](CCC(=O)O)NC(=O)[C@H](CC(=O)O)NC(=O)[C@H](CO)NC(=O)[C@H](Cc1ccccc1)NC(=O)[C@H](CO)NC(=O)CNC(=O)[C@H](CC(=O)O)NC(=O)CNC(=O)[C@@H](N)Cc1c[nH]cn1)[C@@H](C)O)[C@@H](C)CC)C(=O)N[C@@H](CC(N)=O)C(=O)N[C@@H](Cc1c[nH]c2ccccc12)C(=O)N[C@@H](CC(C)C)C(=O)N[C@H](C(=O)N[C@@H](CCC(N)=O)C(=O)N[C@H](C(=O)N[C@@H](CCCCN)C(=O)N[C@H](C(=O)N[C@H](C(=O)N[C@@H](CC(=O)O)C(=O)O)[C@@H](C)O)[C@@H](C)CC)[C@@H](C)O)[C@@H](C)CC [teduglutide, [Gly2]hGLP 2, reference compound]
